Source: US8791267B2, “Biaryl PDE4 inhibitors for treating inflammatory, cardiovascular and CNS disorders” (Decode Genetics EHF, priority 2007, dated 2014)
Counter-ions that a name gives are not always drawn. Like-named read-outs stand apart in the source and are kept apart here.

Biological target: PDE4 (Homo sapiens, UniProt Q08499)
Experiment: In-vitro assay for PDE4 enzymes, real-time enzyme-coupled spectrophotometric assay (Table 9)
Format: biochemical
[1] = human PDE4D, activity class, Table 9, read-out: hPDE4D

PDE4, sequence (Q08499 whole entry): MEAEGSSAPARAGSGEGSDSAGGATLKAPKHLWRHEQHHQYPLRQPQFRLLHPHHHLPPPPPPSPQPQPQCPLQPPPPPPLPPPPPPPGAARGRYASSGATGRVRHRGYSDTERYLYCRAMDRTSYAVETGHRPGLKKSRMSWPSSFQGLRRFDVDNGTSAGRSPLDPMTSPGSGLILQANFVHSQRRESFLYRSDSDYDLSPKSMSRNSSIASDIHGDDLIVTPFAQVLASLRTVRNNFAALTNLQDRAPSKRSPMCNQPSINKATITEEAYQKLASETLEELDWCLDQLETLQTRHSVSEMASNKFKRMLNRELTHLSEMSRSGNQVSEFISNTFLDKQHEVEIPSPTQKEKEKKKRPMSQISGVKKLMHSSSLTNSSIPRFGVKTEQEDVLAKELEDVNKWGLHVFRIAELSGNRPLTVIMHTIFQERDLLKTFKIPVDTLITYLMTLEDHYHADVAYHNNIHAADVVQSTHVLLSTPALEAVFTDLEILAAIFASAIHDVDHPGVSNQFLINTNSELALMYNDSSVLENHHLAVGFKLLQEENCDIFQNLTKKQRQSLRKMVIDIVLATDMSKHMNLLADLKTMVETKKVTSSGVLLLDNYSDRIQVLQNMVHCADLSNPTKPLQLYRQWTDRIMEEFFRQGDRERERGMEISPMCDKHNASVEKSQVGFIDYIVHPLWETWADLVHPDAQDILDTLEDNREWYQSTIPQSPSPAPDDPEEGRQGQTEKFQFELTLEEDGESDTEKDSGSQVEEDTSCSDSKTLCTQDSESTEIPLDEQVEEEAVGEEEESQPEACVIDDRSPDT

Row | Compound | IC50 [1] [µM] | IC50 [µM]
1 | COc1ccc(COc2ccc(N3CCC3)nc2)c(F)c1-c1cccc(Cl)c1 [P-586] | < 5 | 
2 | COc1ccc(C(O)c2ccc(C#N)cc2)c(O)c1-c1cccc([N+](=O)[O-])c1 (stereo not shown) [P-137, 4-[Hydroxy-(2-hydroxy-6-methoxy-3′-nitro-biphenyl-3-yl)-methyl]benzonitrile] | < 5 | 
3 | COc1ccc(Cc2ccc(F)cc2)nc1-c1cccc(C(F)(F)F)c1 [P-065, 6-(4-fluoro-benzyl)-3-methoxy-2-(3-trifluoromethyl-phenyl)-pyridine] | < 5 | 
4 | COc1ccc(Cc2ccc(F)cc2)cc1-c1cccc(SC)c1 [P-151, 5-(4-Fluoro-benzyl)-2-methoxy-3′-methylsulfanyl-biphenyl] | < 5 | 
5 | COc1ccc(Cc2ccc(C(C)N3CCC3)nc2)cc1-c1cccc(Cl)c1 (stereo not shown) [P-609, 2-(1-azetidin-1-yl-ethyl)-5-(3′-chloro-6-methoxy-biphenyl-3-ylmethyl)-pyridine] | < 5 | 
6 | COc1ccc(Cc2ccc(C(C)(C)N)nc2)c(F)c1-c1cccc(Cl)c1 [P-595, 1-[5-(3′-Chloro-2-fluoro-6-methoxy-biphenyl-3-ylmethyl)-pyridin-2-yl]-1-methyl-ethylamine] | < 5 | 
7 | CN(C)CCOc1ccc(Cc2ccc(NC(N)=O)cc2)cc1-c1cccc(Cl)c1 [P-548, {4-[3′-Chloro-6-(2-dimethylamino-ethoxy)-biphenyl-3-ylmethyl]-phenyl}-urea] | 5 to 20 | 
8 | COc1ccc(Cc2ccc(C(C)NC(N)=O)nc2)c(F)c1-c1cccc(Cl)c1 (stereo not shown) [P-613, {1-[5-(3′-Chloro-2-fluoro-6-methoxy-biphenyl-3-ylmethyl)-pyridin-2-yl]-ethyl}-urea hydrochloride] | < 5 | 
9 | COc1ccc(CN2CCC[C@@H]2CO)cc1-c1cccc([N+](=O)[O-])c1 [P-493, [(R)-1-(6-Methoxy-3′-nitro-biphenyl-3-ylmethyl)-pyrrolidin-2-yl]-methanol] | 20 to 40 | 
10 | COc1ccc(COc2ccnc(N3CCCC3)c2)c(F)c1-c1cccc(Cl)c1 [P-608] | < 5 | 
11 | COc1ccc(Cc2ccc(NC(N)=O)cc2)c(F)c1-c1cccc(C(C)O)c1 (stereo not shown) [P-340, {4-[2-Fluoro-3′-(1-hydroxy-ethyl)-6-methoxy-biphenyl-3-ylmethyl]-phenyl}-urea] | < 5 | 
12 | CCNC(=O)Nc1ccc(S(=O)(=O)c2ccc(OC)c(-c3cccc(Cl)c3)c2)cc1 [P-450, 1-[4-(3′-Chloro-6-methoxy-biphenyl-3-sulfonyl)-phenyl]-3-ethyl-urea] | < 5 | 
13 | CCOC(=O)N1CCN(c2ccc(Cc3ccc(OC)c(-c4cccc(Cl)c4)c3F)cn2)CC1 [P-431] | < 5 | 
14 | COc1ccc(COc2ccc(NC(N)=O)cc2)c(F)c1-c1cccc(Cl)c1 [P-589] | < 5 | 
15 | CN(C)CC(=O)Nc1ccc(Cc2ccc(OC(F)F)c(-c3cccc(Cl)c3)c2)cn1 [P-618, N-[5-(3′-Chloro-6-difluoromethoxy-biphenyl-3-ylmethyl)-pyridin-2-yl]-2-dimethylamino-acetamide hydrochloride] | < 5 | 
16 | COc1ccc(C=Cc2ccc(F)cc2)c(F)c1-c1cccc(Cl)c1 [P-418] | 5 to 20 | 
17 | COc1ccc(Cc2ccc(F)cc2)c(F)c1-c1cccc(N)c1 [P-098] | < 5 | 
18 | COc1ccc([C@@](C)(O)c2ccc(NC(C)=O)cc2)c(F)c1-c1cccc(Cl)c1 (single isomer, unassigned) [P-561] | < 5 | 
19 | COc1ccc(Cn2cc(-c3ccc(NC(N)=O)cc3)cn2)c(F)c1-c1cccc(Cl)c1 [P-435] | < 5 | 
20 | CN1CC[C@H](Oc2ccc(Cc3ccc(NC(N)=O)cc3)cc2-c2cccc(Cl)c2)C1 [P-556] | 5 to 20 | 
21 | COc1ccc(Cc2ccc(F)cc2)cc1-n1cc(Cl)cn1 [P-380, 4-Chloro-1-[5-(4-fluoro-benzyl)-2-methoxy-phenyl]-1H-pyrazole] | < 5 | 
22 | COc1ccc(COc2cccc(N)c2)c(F)c1-c1cccc(Cl)c1 [P-232] | < 5 | 
23 | COc1ccc(CN2CC[C@@H](O)C2)cc1-c1cccc(C(F)(F)F)c1 [P-078] | 5 to 20 | 
24 | CC(=O)Nc1ccc(NCc2ccc(O)c(-c3cccc(Cl)c3)c2F)cc1 [P-203, N-{4-[(3′-Chloro-2-fluoro-6-hydroxy-biphenyl-3-ylmethyl)-amino]-phenyl}-acetamide] | < 5 | 
25 | CNc1ccc(Cc2ccc(OC)c(-c3cccc(Cl)c3)c2)cc1 [P-476, [4-(3′-Chloro-6-methoxy-biphenyl-3-ylmethyl)-phenyl]-methyl-amine hydrochloric acid] | < 5 | 
26 | COc1ccc(-c2cc(Cc3ccc(F)cc3)ccc2OC)cc1C(C)=O [P-170, 1-[5′-(4-Fluoro-benzyl)-4,2′-dimethoxy-biphenyl-3-yl]-ethanone] | < 5 | 
27 | COc1ccc(Cc2cccc(OCCN3CCOCC3)c2)c(F)c1-c1cccc(Cl)c1 [P-220] | < 5 | 
28 | COc1ccc(CN2C(=O)c3ccccc3C2=O)cc1-c1ccc2c(c1)OCO2 [P-052, 2-(3-Benzo[1,3]dioxol-5-yl-4-methoxy-benzyl)-isoindole-1,3-dione] | < 5 | 

Row | Compound | IC50 [1] [µM] | IC50 [µM]
29 | COc1ccc(Cc2cccc(NS(C)(=O)=O)c2)cc1-c1cccc(Cl)c1 [P-271, N-[3-(3′-Chloro-6-methoxy-biphenyl-3-ylmethyl)-phenyl]-methanesulfonamide] | 5 to 20 | 
30 | COc1ccc(CN2CCOCC2)nc1-c1cccc([N+](=O)[O-])c1 [P-026, 4-[5-methoxy-6-(3-nitro-phenyl)-pyridin-2-ylmethyl]-morpholine] | 5 to 20 | 
31 | COc1ccc(Cc2ccc(F)cc2)c(C#N)c1-c1cccc([N+](=O)[O-])c1 [P-163, 3-(4-fluoro-benzyl)-6-methoxy-3′-nitro-biphenyl-2-carbonitrile] | < 5 | 
32 | O=CNCc1ccccc1Cc1ccc(O)c(-c2cccc([N+](=O)[O-])c2)c1 [P-501, N-[2-(6-Hydroxy-3′-nitro-biphenyl-3-ylmethyl)-benzyl]-formamide] | 5 to 20 | 
33 | COc1ccc(Cn2cncn2)cc1-c1cccc([N+](=O)[O-])c1 [P-005] | < 5 | 
34 | O=[N+]([O-])c1cccc(-c2cc(Cc3ccc(F)cc3)ccc2OC(F)(F)F)c1 [P-080, 5-(4-Fluoro-benzyl)-3′-nitro-2-trifluoromethoxy-biphenyl] | < 5 | 
35 | COc1ccc(Cc2ccc(F)cc2)cc1-c1ccc2c(c1)OC(F)(F)O2 [P-141, 2,2-Difluoro-5-[5-(4-fluoro-benzyl)-2-methoxy-phenyl]-benzo[1,3]dioxole] | < 5 | 
36 | FC(F)Oc1ccc(Cc2ccc(N3CCC3)nc2)cc1-c1cccc(Cl)c1 [P-614, 2-Azetidin-1-yl-5-(3′-chloro-6-difluoromethoxy-biphenyl-3-ylmethyl)-pyridine] | < 5 | 
37 | COCc1cccc(-c2cc(Cn3cncn3)ccc2OC)c1 [P-108, 1-(6-Methoxy-3′-methoxymethyl-biphenyl-3-ylmethyl)-1H-[1,2,4]triazole] | < 5 | 
38 | CNC(=O)Cc1ccc(OC)c(-c2cccc([N+](=O)[O-])c2)c1 [P-027] | < 5 | 
39 | COc1ccc(Cc2ccc(CNC(=O)Oc3ccccc3)nc2)c(F)c1-c1cccc(Cl)c1 [P-520, [5-(3′-Chloro-2-fluoro-6-methoxy-biphenyl-3-ylmethyl)-pyridin-2-ylmethyl]-carbamic acid phenyl ester] |  | < 5
40 | COc1ccc(Cc2ccc(F)cc2)c(OC)c1-c1cccc([N+](=O)[O-])c1 [P-097] | < 5 | 
41 | COCCOc1ccc(Cc2ccc(=O)n(CCOC)n2)cc1-c1cccc([N+](=O)[O-])c1 [P-018, 6-[6-(2-Methoxy-ethoxy)-3′-nitro-biphenyl-3-ylmethyl]-2-(2-methoxy-ethyl)-2H-pyridazin-3-one] | 5 to 20 | 
42 | COc1ccc(Cc2ccc(NC(C)=O)cc2)c(F)c1-c1cccc(N2CCCC2)c1 [P-381, N-[4-(2-Fluoro-6-methoxy-3′-pyrrolidin-1-yl-biphenyl-3-ylmethyl)-phenyl]-acetamide] | < 5 | 
43 | COc1ccc(Cn2cncn2)nc1-c1cccc(C(F)(F)F)c1 [P-064, 3-methoxy-6-[1,2,4]triazol-1-ylmethyl-2-(3-trifluoromethyl-phenyl)-pyridine] | 5 to 20 | 
44 | COc1ccc(Cc2ccc(N3CCC[C@H]3C(C)(C)O)nc2)c(F)c1-c1cccc(Cl)c1 [P-581, 2-{(S)-1-[5-(3′-chloro-2-fluoro-6-methoxy-biphenyl-3-ylmethyl)-pyridin-2-yl]-pyrrolidin-2-yl}-propan-2-ol] | < 5 | 
45 | COc1ccc(Cc2ccc(F)cc2)cc1-c1ccc2c(c1)OCO2 [P-003, 5-[5-(4-Fluoro-benzyl)-2-methoxy-phenyl]-benzo[1,3]dioxole] | < 5 | 
46 | NC(=O)Nc1ccc(Cc2ccc(OC(F)F)c(-c3cccc(Cl)c3)c2)cn1 [P-616, [5-(3′-Chloro-6-difluoromethoxy-biphenyl-3-ylmethyl)-pyridin-2-yl]-urea] | < 5 | 
47 | CCNc1ccc(Cc2ccc(OC)c(-c3cccc(Cl)c3)c2)cc1 [P-247, [4-(3′-Chloro-6-methoxy-biphenyl-3-ylmethyl)-phenyl]-ethylamine; HCl salt] | < 5 | 
48 | COc1ccc(Cn2nc(C(F)(F)F)cc2-c2cccnc2)c(F)c1-c1cccc(Cl)c1 [P-552, 3-[2-(3′-Chloro-2-fluoro-6-methoxy-biphenyl-3-ylmethyl)-5-trifluoromethyl-2H-pyrazol-3-yl]-pyridine hydrochloride salt] | < 5 | 
49 | COc1ccc(Cc2ccc(NC(C)=O)cc2)c(F)c1-c1cccc(N)c1 [P-167] | < 5 | 
50 | COc1ccc(Cc2ccc([N+](=O)[O-])c(O)c2)c(F)c1-c1cccc(Cl)c1 [P-257] | < 5 | 
51 | [2H]C(O)(c1ccc(N)cc1)c1ccc(OC)c(-c2cccc(Cl)c2)c1F (stereo not shown) [P-538, deutero-(4-amino-phenyl)-(3′-chloro-2-fluoro-6-methoxy-biphenyl-3-yl)-methanol] | < 5 | 
52 | COc1ccc(Cc2ccccc2CNC=O)cc1-c1cccc([N+](=O)[O-])c1 [P-158, N-[2-(6-Methoxy-3′-nitro-biphenyl-3-ylmethyl)-benzyl]-formamide] | 5 to 20 | 
53 | COc1ccc(Cc2ccc(Nc3nccs3)cc2)c(F)c1-c1cccc(Cl)c1 [P-466] | < 5 | 
54 | COc1ccc(CN2C(=O)CC[C@@H]2CO)cc1-c1cccc([N+](=O)[O-])c1 [P-132, (R)-5-Hydroxymethyl-1-(6-methoxy-3′-nitro-biphenyl-3-ylmethyl)-pyrrolidin-2-one] | 20 to 40 | 
55 | COc1ccc(Cc2ccc(CNS(C)(=O)=O)c(F)c2)c(F)c1-c1cccc(Cl)c1 [P-286] | < 5 | 
